From patent US20150239831A1, “INHIBITORS OF CENTRAL NERVOUS SYSTEM VASOACTIVE INHIBITORY PEPTIDE RECEPTOR 2” (The Trustees Of Columbia University In The City Of New York, priority 2012, published 2015)

Tests used:
Format in all cases: cell-based
Design in all cases: expressed in transfected cells; host or cells: HEK293 cells transfected with VIPR2 in pCDNA3.1 (as described)
VIPR2 [1] = biological target: T1, VIPR2 (Homo sapiens, UniProt P41587); assay: Inhibition of VIP-induced cAMP elevation (% Activity cAMP)
T1 sequence (P41587 24-438): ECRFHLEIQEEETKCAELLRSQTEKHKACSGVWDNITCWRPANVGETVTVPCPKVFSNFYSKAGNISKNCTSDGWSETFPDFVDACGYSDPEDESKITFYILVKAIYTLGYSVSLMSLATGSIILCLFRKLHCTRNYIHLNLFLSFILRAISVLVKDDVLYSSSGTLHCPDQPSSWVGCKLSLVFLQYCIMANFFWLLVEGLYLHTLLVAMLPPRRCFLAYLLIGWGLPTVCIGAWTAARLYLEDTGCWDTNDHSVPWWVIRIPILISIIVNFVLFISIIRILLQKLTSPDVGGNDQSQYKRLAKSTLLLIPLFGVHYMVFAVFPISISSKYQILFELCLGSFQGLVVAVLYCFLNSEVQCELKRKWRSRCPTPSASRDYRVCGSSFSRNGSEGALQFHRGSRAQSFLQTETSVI
Source text: (§1) In a further non-limiting embodiment of the invention, the ability of a compound to inhibit VIPR2 and thereby […] a VIP-induced increase in cAMP may be measured using a Homogeneous Time-Resolved Fluorescence (“HTRF® assay; Cisbio Bioassays) as used in Chu et al., 2010, Molecular Pharmacol. 7795-101. In a method as used in Chu et al., 2010, Molecular Pharmacol. 7795-101, HEK293 cells may be transfected with nucleic acid encoding VIPR2, for example human VIPR2 (“hVIPR2”), for example comprised in a vector such as pCDNA3.1 vector. Successful transformants may then be selected, for example using 800 μg/ml G418. Clonal stable cell lines may then be generated by limited dilution to single cells and then may be clonally expanded and tested for VIP -dependent cAMP response. For the cAMP assay, about 3000-15,000 cells (in about 4-25 μl) may be placed in a well of an assay plate. The next day, inhibitor or test inhibitor and VIP may be added in a volume about 1-2 percent of the initial volume. Assay plates may then be returned to a cell incubator for 30 min before addition of a one-half volume of cAMP conjugate and, relative to the amount of cAMP conjugate, an equal volume of anti-cAMP conjugate (Cisbio). After at least 1 h of room-temperature incubation, HTRF signal may be read, for example using Viewlux or EnVision (PerkinElmer Life and Analytical Sciences, Waltham, Mass.). The ratio of […] at 665 nm and 620 nm times 10,000 may be calculated and plotted.
(§2) A series of compounds were prepared using a synthetic method analogous to that set forth in Scheme 1, above, and then tested for their ability to inhibit VIP-induced cAMP elevation and β-arrestin recruitment.
(§3) A series of compounds were prepared using a synthetic method analogous to that set forth in Scheme 1, above, and then tested for their ability to inhibit VIP-induced cAMP elevation and β-arrestin recruitment, as described herein (Discoverx Corporation, Fremont, Calif., US). Compound activities were also tested in a BRET-based assay, as described herein. The results are shown below in Tables 1-4, above.

VIPR2 [2] = biological target: T1, VIPR2; assay: Inhibition of VIP-induced β-arrestin recruitment (% Activity Arrestin)
Source text: (§4) In a further non-limiting embodiment of the invention, the ability of a compound to inhibit VIPR2 GPCR activity may be tested, for example, using the PathHunter® eXpress β-Arrestin GPCR system (Discoverx Corporation, Fremont, Calif., US), as used by Chu et al., 2010, Molecular Pharmacol. 7795-101. In this assay, β-Arrestin is fused to the “Enzyme Acceptor” (“EA”), an N-terminal deletion mutant of β-gal, and the GPCR of interest is fused to a smaller (42 amino acids), weakly complementing portion of the β-gal enzyme (termed “ProLink™”). In cells that stably express these fusion proteins, the interaction of β-Arrestin and the GPCR following ligand stimulation forces the complementation of the two β-gal fragments resulting in the formation of a functional enzyme that converts substrate to detectable signal. In the absence of an interaction between the GPCR and β-Arrestin, the enzyme activity is low due to the low affinity of the two enzyme fragments. For example, a nucleic acid encoding VIPR2, for example hVIPR2, may be cloned into the ProLink vector (DiscoveRx) for GPCR-ProLink fusion protein production. Parental HEK293 cells that stably express β-arrestin2-β-gal-EA fusion protein (DiscoveRx) may be detached and transiently transfected with the VIPR2-containing vector using Fugene6 transfection reagent in suspension mode. Transfected cells in assay medium may be plated into test plates, for example at 15,000 cells/25 μl/well. After overnight incubation, 500 nl of an inhibitor or test inhibitor may be introduced into the test plate followed by 2 h incubation at 37° C., 5% CO2. Flash detection reagents may be added at 12.5 μl/well. After 5 min to 1 h of room-temperature incubation, the cell plates may be read on CLIPR (PerkinElmer Life and Analytical Sciences)or Acquest (Molecular Devices, Sunnyvale, Calif.) for luminescence signal.
as §2, §3

VIPR2 [3] = biological target: T1, VIPR2; assay: % Activity: inhibition of VIP-induced cAMP elevation and β-arrestin recruitment (Table 2)
Source text: as §1, §4, §3

| SMILES | inhibition at 0.5 µM (VIPR2 [1]; Batch 1) | inhibition at 1 µM (VIPR2 [1]; Batch 1) | inhibition at 5 µM (VIPR2 [1]; Batch 1) | inhibition at 0.5 µM (VIPR2 [2]; Batch 1) | inhibition at 1 µM (VIPR2 [2]; Batch 1) | inhibition at 5 µM (VIPR2 [2]; Batch 1) | % Activity (VIPR2 [3]) | inhibition at 0.5 µM (VIPR2 [1]; Batch 2) | inhibition at 0.5 µM (VIPR2 [1]; Batch 3) | inhibition at 1 µM (VIPR2 [1]; Batch 2) | inhibition at 1 µM (VIPR2 [1]; Batch 3) | inhibition at 5 µM (VIPR2 [1]; Batch 2) | inhibition at 5 µM (VIPR2 [1]; Batch 3) | inhibition at 0.5 µM (VIPR2 [2]; Batch 2) | inhibition at 0.5 µM (VIPR2 [2]; Batch 3) | inhibition at 1 µM (VIPR2 [2]; Batch 2) | inhibition at 1 µM (VIPR2 [2]; Batch 3) | inhibition at 5 µM (VIPR2 [2]; Batch 2) | inhibition at 5 µM (VIPR2 [2]; Batch 3) |
| --- | --- | --- | --- | --- | --- | --- | --- | --- | --- | --- | --- | --- | --- | --- | --- | --- | --- | --- | --- |
| CC(C)(C)c1ccc(S(=O)(=O)NC[C@@H](O)C[C@@H](Cc2ccccc2)C(=O)N[C@H]2c3ccccc3C[C@H]2O)cc1 [A, reference compound] | 9.7% | 13% | 72.1% | 0% | 18.1% | 56.7% | – | – | – | – | – | – | – | – | – | – | – | – | – |
| O=C(NC[C@@H](O)C[C@@H](Cc1ccccc1)C(=O)N[C@H]1c2ccccc2C[C@H]1O)c1ccc2ccccc2c1 [B] | 13.2% | 16.3% | 23.5% | -2.9% | 11.1% | 9.7% | 16.6% | – | – | – | – | – | – | – | – | – | – | – | – |
| O=C(NC[C@@H](O)C[C@@H](Cc1ccccc1)C(=O)N[C@H]1c2ccccc2C[C@H]1O)C1CC1 [Compound A1] | 21% | 21.1% | 24% | -3.8% | 37% | 29.1% | 26.55% | – | – | – | – | – | – | – | – | – | – | – | – |
| O=C(NC[C@@H](O)C[C@@H](Cc1ccccc1)C(=O)N[C@H]1c2ccccc2C[C@H]1O)c1ccco1 [Compound A2] | 20.8% | 22.5% | 19.1% | 30.3% | 27.7% | 33.3% | 26.2% | – | – | – | – | – | – | – | – | – | – | – | – |
| Cc1cc(S(=O)(=O)NC[C@@H](O)C[C@@H](Cc2ccccc2)C(=O)N[C@H]2c3ccccc3C[C@H]2O)c(C)cc1Cl [Compound A3] | 20.6% | 21.6% | 41.1% | 17.6% | 30.2% | 0.6% | 20.85% | – | – | – | – | – | – | – | – | – | – | – | – |
| CS(=O)(=O)NC[C@@H](O)C[C@@H](Cc1ccccc1)C(=O)N[C@H]1c2ccccc2C[C@H]1O [Compound A5] | 21.4% | 21.9% | 18.5% | 17.3% | 31.6% | 23.4% | 20.95% | – | – | – | – | – | – | – | – | – | – | – | – |
| O=C(NC[C@@H](O)C[C@@H](Cc1ccccc1)C(=O)N[C@H]1c2ccccc2C[C@H]1O)C(Cl)Cl [Compound A6] | 18.4% | 18.3% | 19.6% | 9.5% | 17.4% | 20% | 19.8% | – | – | – | – | – | – | – | – | – | – | – | – |
| O=C(CCl)NC[C@@H](O)C[C@@H](Cc1ccccc1)C(=O)N[C@H]1c2ccccc2C[C@H]1O [Compound A7] | 18.4% | 19.2% | 15.6% | 9.9% | 23.7% | 17.5% | 16.55% | – | – | – | – | – | – | – | – | – | – | – | – |
| O=C(NC[C@@H](O)C[C@@H](Cc1ccccc1)C(=O)N[C@H]1c2ccccc2C[C@H]1O)C1CCCCCC1 [Compound A8] | 18.4% | 17% | 17% | 24.4% | 16.4% | 10.5% | 13.75% | – | – | – | – | – | – | – | – | – | – | – | – |
| CC(C)CS(=O)(=O)NC[C@@H](O)C[C@@H](Cc1ccccc1)C(=O)N[C@H]1c2ccccc2C[C@H]1O [Compound A11] | 13.3% | 15.6% | 22.2% | 7.1% | 3.2% | 20% | 21.1% | – | – | – | – | – | – | – | – | – | – | – | – |
| CC(C)C(=O)NC[C@@H](O)C[C@@H](Cc1ccccc1)C(=O)N[C@H]1c2ccccc2C[C@H]1O [Compound A13] | 0.7% | 2.6% | -0.9% | -11.8% | -10.7% | -16.3% | −8.6% | – | – | – | – | – | – | – | – | – | – | – | – |
| O=C(CCCCBr)NC[C@@H](O)C[C@@H](Cc1ccccc1)C(=O)N[C@H]1c2ccccc2C[C@H]1O [Compound A15] | 11.7% | 12.9% | 9.4% | 1.7% | -28.8% | -10.6% | −0.6% | – | – | – | – | – | – | – | – | – | – | – | – |
| O=C(NC[C@@H](O)C[C@@H](Cc1ccccc1)C(=O)N[C@H]1c2ccccc2C[C@H]1O)c1cccnc1 [Compound A16] | 15.2% | 13.5% | 16.4% | -6.8% | -5.7% | -6.3% | 5.05% | – | – | – | – | – | – | – | – | – | – | – | – |
| O=C(NC[C@@H](O)C[C@@H](Cc1ccccc1)C(=O)N[C@H]1c2ccccc2C[C@H]1O)c1ccccn1 [Compound A17] | 14.9% | 17.7% | 20.3% | 6.1% | 32.7% | 5.5% | 12.9% | – | – | – | – | – | – | – | – | – | – | – | – |
| O=C(NC[C@@H](O)C[C@@H](Cc1ccccc1)C(=O)N[C@H]1c2ccccc2C[C@H]1O)c1ccncc1 [Compound A18] | 14.2% | 19.2% | 21% | -39.7% | 10.9% | -8.8% | 6.1% | – | – | – | – | – | – | – | – | – | – | – | – |
| O=C(N[C@H]1c2ccccc2C[C@H]1O)[C@H](Cc1ccccc1)C[C@H](O)CNS(=O)(=O)c1ccc([N+](=O)[O-])cc1 [Compound A27, reference compound] | 42.6% | 71.3% | 99.1% | 37.7% | 74.6% | 88.7% | – | 38.7% | 74.3% | 70.9% | 86.1% | 100% | 97.8% | 15.6% | 2.6% | 38.6% | -2.6% | 92% | 29.3% |
